Patent US20150344466A1 (SUMITOMO CHEMICAL COMPANY, LIMITED, priority 2013, published 2015)

Experiments:
Type in all cases: in vivo
[1] = test system: Blattella germanica; assay: Knockdown spray test on Blattella germanica, 2.0% w/v oil formulation (Test Example 1); settings: topical, 0.25 h, active ingredient 2.0% w/v, 1.5 ml sprayed, within 15 minutes, read-out: knockdown rate of the test insects within 15 minutes
Protocol: Ten Blattella germanica (5 males and 5 females) were released in a test container (8.75 cm in diameter, 7.5 cm in height, and the bottom made of 16 mesh metallic wire) with the inner wall on which butter was applied, and the container was placed on the bottom of a test chamber (bottom: 46 cm×46 cm, height: 70 cm). From a height of 60 cm above the upper surface of the container, 1.5 ml of the test drug solution was sprayed using a spray gun (a spraying pressure of 0.42 kg/cm^2). Thirty seconds after spraying, the container was taken out from the test chamber, and after 2 minutes, 5 minutes and 15 minutes, the number of knocked-down insects was counted to obtain a knockdown rate. The knockdown rate was calculated by the following equation.
(§1) Knockdown Rate (%)=(Number of Knocked-down Insects/Number of Tested Insects)×100

[2] = test system: Musca domestica; assay: Knockdown spray test on adult Musca domestica (Test Example 3); settings: topical, 0.25 h, active ingredient 2.0% w/v, 0.5 ml sprayed, within 15 minutes, read-out: knockdown rate of the test insects within 15 minutes
Protocol: Ten adult Musca domestica (five males and five females) were released in a polyethylene cup (bottom diameter: 10.6 cm), and the cup was covered with a 16-mesh nylon gauze. The polyethylene cup was placed on the bottom of a test chamber (bottom: 46 cm×46 cm, height: 70 cm). From a height of 30 cm above the upper surface of the polyethylene cup, 0.5 ml of the test drug solution was sprayed using a spray gun (a spraying pressure of 0.9 kg/cm^2). Immediately after spraying, the cup was taken out from the test chamber, and after 2 minutes, 5 minutes and 15 minutes, the number of knocked-down insects was counted to obtain a knockdown rate. The knockdown rate was calculated by the following equation.
as §1

[3] = test system: Culex pipiens pallens; assay: Knockdown spray test on adult Culex pipiens pallens (Test Example 4); settings: topical, 0.25 h, active ingredient 0.1% w/v, 0.5 ml sprayed, within 15 minutes, read-out: knockdown rate of the test insects within 15 minutes
How it was run: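 Ten adult mosquitoes in a gauze-covered cup inside a 46×46×70 cm chamber were sprayed with 0.5 ml of test solution from 30 cm at 0.4 kg/cm^2. The cup was removed at once, and knocked-down insects were counted at 2, 5 and 15 min; knockdown rate (%) = knocked-down/tested ×100.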

[4] = test system: Musca domestica; assay: Filter paper/sucrose bait death rate test on Musca domestica (Test Example 5); settings: female imagoes of Musca domestica, 0.7 ml on filter paper, after 24 hours
Protocol: A filter paper having a diameter of 5.5 cm was spread on the bottom of a polyethylene cup having the same diameter and 0.7 ml of the test drug solution was added dropwise onto the filter paper, and 30 mg of sucrose was uniformly placed as bait.
Into the polyethylene cup, 10 female imagoes of Musca domestica were released, and the cup was sealed with a lid. After 24 hours, the life and death of Musca domestica was examined, and the death rate was calculated. The death rate was calculated by the following equation.
Death rate (%)=(Number of dead insects/Number of tested insects)×100

[5] = test system: Blattella germanica; assay: Knockdown spray test on Blattella germanica, 0.1% w/v oil formulation (Test Example 2); settings: topical, 0.25 h, active ingredient 0.1% w/v, 1.5 ml sprayed, within 15 minutes, read-out: knockdown rate of the test insects within 15 minutes
How it was run: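 Ten German cockroaches (5 males, 5 females) in a mesh-bottomed, butter-walled container were sprayed with 1.5 ml test solution from 60 cm at 0.42 kg/cm^2 inside a chamber.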

Row | Compound | pest or weed control at 2 % strength [1] [%] | pest or weed control at 2 % strength [2] [%] | pest or weed control at 0.1 % strength [3] [%] | pest or weed control at 500 ppm [4] [%] | pest or weed control at 0.1 % strength [5] [%]
1 | O=C(NCC1CCOC1)c1cc(Cc2cccc(C(F)(F)F)c2)on1 (stereo not shown) [(158), N-(tetrahydrofuran-3-ylmethyl)-5-(3-trifluoromethylbenzyl)isoxazole-3-carboxamide] | ≥ 80 | ≥ 80 | ≥ 80 |  | 
2 | O=C(NCC1CCCCO1)c1cc(COCc2ccccc2)on1 (stereo not shown) [(14), N-(tetrahydropyran-2-ylmethyl)-5-benzyloxymethylisoxazole-3-carboxamide] | ≥ 80 | ≥ 80 | ≥ 80 |  | 
3 | O=C(NCC1CCOC1)c1cc(COc2ccccc2Cl)on1 (stereo not shown) [(176), N-(tetrahydrofuran-3-ylmethyl)-5-(2-chlorophenoxymethyl)isoxazole-3-carboxamide] |  | ≥ 80 | ≥ 80 | ≥ 90 | ≥ 80
4 | Cc1c(C(=O)NCC2CCOC2)noc1COCc1ccccc1 (stereo not shown) [(169), N-(tetrahydrofuran-3-ylmethyl)-(5-benzyloxymethyl-4-methyl) isoxazole-3-carboxamide] |  | ≥ 80 | ≥ 80 |  | ≥ 80
5 | O=C(NCC1CCOC1)c1cc(CCCCCCOCc2ccccc2)on1 (stereo not shown) [(143), N-(tetrahydrofuran-3-ylmethyl)-5-(6-benzyloxyhexyl)isoxazole-3-carboxamide] | ≥ 80 | ≥ 80 | ≥ 80 |  | 
6 | O=C(NCC1CCOC1)c1cc(CCCCCOCc2ccccc2)on1 (stereo not shown) [(141), N-(tetrahydrofuran-3-ylmethyl)-5-(5-benzyloxypentyl)isoxazole-3-carboxamide] | ≥ 80 | ≥ 80 | ≥ 80 |  | 
7 | O=C(NCC1CCOC1)c1cc(CCCOCc2ccccc2)on1 (stereo not shown) [(139), N-(tetrahydrofuran-3-ylmethyl)-5-(3-benzyloxypropyl)isoxazole-3-carboxamide] | ≥ 80 | ≥ 80 | ≥ 80 |  | 
8 | O=C(NCC1CCOC1)c1cc(COCC2COc3ccccc3O2)on1 (stereo not shown) [(120), N-(tetrahydrofuran-3-ylmethyl)-5-(1,4-benzodioxan-2-ylmethoxymethyl)isoxazole-3-carboxamide] |  | ≥ 80 | ≥ 80 |  | ≥ 80
9 | O=C(NCC1CCOC1)c1cc(COCc2cccc3ccccc23)on1 (stereo not shown) [(27), N-(tetrahydrofuran-3-ylmethyl)-5-(1-naphthylmethoxymethyl)isoxazole-3-carboxamide] | ≥ 80 | ≥ 80 | ≥ 80 |  | 
10 | O=C(NCC1CCOC1)c1cc(COCc2cccc(C(F)(F)F)c2)on1 (stereo not shown) [(64), N-(tetrahydrofuran-3-ylmethyl)-5-(3-trifluoromethylbenzyloxymethyl)isoxazole-3-carboxamide] | ≥ 80 | ≥ 80 | ≥ 80 |  | 
11 | O=C(NCC1CCOC1)c1cc(Cc2ccc3ccccc3c2)on1 (stereo not shown) [(159), N-(tetrahydrofuran-3-ylmethyl)-5-(naphthalen-2-ylmethyl)isoxazole-3-carboxamide] |  | ≥ 80 | ≥ 80 |  | 
12 | O=C(NCC1CCOC1)c1cc(CCCCOCc2ccccc2)on1 (stereo not shown) [(140), N-(tetrahydrofuran-3-ylmethyl)-5-(4-benzyloxybutyl)isoxazole-3-carboxamide] | ≥ 80 | ≥ 80 | ≥ 80 |  | 
13 | O=C(NCC1CCOC1)c1cc(Cc2cccc3ccccc23)on1 (stereo not shown) [(160), N-(tetrahydrofuran-3-ylmethyl)-5-(naphthalen-1-ylmethyl)isoxazole-3-carboxamide] |  | ≥ 80 | ≥ 80 |  | 
14 | O=C(NCC1CCOC1)c1cc(COC/C=C/c2ccccc2)on1 (stereo not shown) [(242), N-(tetrahydrofuran-3-ylmethyl)-5-(3-phenyl-(E)-2-propenyloxymethyl)isoxazole-3-carboxamide] |  | ≥ 80 | ≥ 80 |  | 
15 | O=C(NCC1CCOC1)c1cc(CCCc2ccccc2)on1 (stereo not shown) [(22), N-(tetrahydrofuran-3-ylmethyl)-5-(3-phenylpropyl)isoxazole-3-carboxamide] | ≥ 80 | ≥ 80 | ≥ 80 | ≥ 90 | 
16 | CCCCc1cc(C(=O)NCC2CCOC2)no1 (stereo not shown) [(11), N-(tetrahydrofuran-3-ylmethyl)-5-butylisoxazole-3-carboxamide] | ≥ 80 | ≥ 80 | ≥ 80 |  | 
17 | O=C(NCC1CCOC1)c1cc(COCc2ccccc2F)on1 (stereo not shown) [(264), N-(tetrahydrofuran-3-ylmethyl)-5-(2-fluorobenzyloxymethyl)isoxazole-3-carboxamide] |  | ≥ 80 | ≥ 80 | ≥ 90 | ≥ 80
18 | O=C(NCC1CCOC1)c1cc(COCCC2CCCC2)on1 (stereo not shown) [(132), N-(tetrahydrofuran-3-ylmethyl)-5-(2-cyclopentylethyl)oxymethylisoxazole-3-carboxamide] |  | ≥ 80 | ≥ 80 | ≥ 90 | ≥ 80
19 | Cc1c(C(=O)NCC2CCOC2)noc1COCc1ccc2ccccc2c1 (stereo not shown) [(213), N-(tetrahydrofuran-3-ylmethyl)-4-methyl-5-(2-naphthylmethoxymethyl)isoxazole-3-carboxamide] |  | ≥ 80 | ≥ 80 |  | ≥ 80
20 | O=C(NCC1CCOCC1)c1cc(CCCc2ccccc2)on1 [(235), N-(tetrahydropyran-4-ylmethyl)-5-(3-phenylpropyl)isoxazole-3-carboxamide] |  | ≥ 80 | ≥ 80 |  | ≥ 80
21 | CC1(CNC(=O)c2cc(COCc3ccccc3)on2)COC1 [(334), N-(3-methyloxetan-3-ylmethyl)-5-benzyloxymethylisoxazole-3-carboxamide] | ≥ 80 | ≥ 80 | ≥ 80 |  | ≥ 80
22 | O=C(NCC1CCOC1)c1cc(COCc2cccc(-c3ccccc3)c2)on1 (stereo not shown) [(113), N1-(tetrahydrofuran-3-ylmethyl)-5-(3-phenylbenzyloxymethyl)isoxazole-3-carboxamide] | ≥ 80 | ≥ 80 | ≥ 80 |  | 
23 | O=C(NCC1CCOC1)c1cc(COCC#Cc2ccccc2)on1 (stereo not shown) [(240), N-(tetrahydrofuran-3-ylmethyl)-5-(3-phenyl-2-propionyl)oxymethylisoxazole-3-carboxamide] | ≥ 80 | ≥ 80 | ≥ 80 |  | ≥ 80
24 | O=C(NCC1CCOC1)c1cc(Cc2ccccc2)on1 (stereo not shown) [(26), N-(tetrahydrofuran-3-ylmethyl)-5-benzylisoxazole-3-carboxamide] | ≥ 80 | ≥ 80 | ≥ 80 | ≥ 90 | 
